From ChEMBL document CHEMBL1773029, “1-Substituted 4-(3-Hydroxyphenyl)piperazines Are Pure Opioid Receptor Antagonists” (ACS Med Chem Lett, 2010)

Assays:
Type in all cases: functional, cell-based
[1] = target: Delta-type opioid receptor (Homo sapiens) (UniProt P41143); assay: Antagonist activity at human delta opioid receptor expressed in CHO cells assessed as inhibition of DPDPE stimulated [35S]GTPgammaS binding
[2] = target: Mu-type opioid receptor (Homo sapiens) (UniProt P35372); assay: Antagonist activity at human mu opioid receptor expressed in CHO cells assessed as inhibition of DAMGO stimulated [35S]GTPgammaS binding
[3] = target: Kappa-type opioid receptor (Homo sapiens) (UniProt P41145); assay: Antagonist activity at human kappa opioid receptor expressed in CHO cells assessed as inhibition of U69,593 stimulated [35S]GTPgammaS binding
Kappa-type opioid receptor (Homo sapiens), sequence (P41145 whole entry): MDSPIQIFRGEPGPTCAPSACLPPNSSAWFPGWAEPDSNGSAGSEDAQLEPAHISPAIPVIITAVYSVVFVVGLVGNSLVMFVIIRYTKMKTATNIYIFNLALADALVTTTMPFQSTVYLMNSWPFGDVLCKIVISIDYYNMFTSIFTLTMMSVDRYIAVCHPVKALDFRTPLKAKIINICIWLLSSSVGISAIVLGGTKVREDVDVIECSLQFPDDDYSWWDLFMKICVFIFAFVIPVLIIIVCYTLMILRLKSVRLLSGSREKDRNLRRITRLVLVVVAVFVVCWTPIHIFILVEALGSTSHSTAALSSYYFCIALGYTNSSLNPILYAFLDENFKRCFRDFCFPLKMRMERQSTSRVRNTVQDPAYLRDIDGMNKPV

Delta-type opioid receptor (Homo sapiens), sequence (P41143 whole entry): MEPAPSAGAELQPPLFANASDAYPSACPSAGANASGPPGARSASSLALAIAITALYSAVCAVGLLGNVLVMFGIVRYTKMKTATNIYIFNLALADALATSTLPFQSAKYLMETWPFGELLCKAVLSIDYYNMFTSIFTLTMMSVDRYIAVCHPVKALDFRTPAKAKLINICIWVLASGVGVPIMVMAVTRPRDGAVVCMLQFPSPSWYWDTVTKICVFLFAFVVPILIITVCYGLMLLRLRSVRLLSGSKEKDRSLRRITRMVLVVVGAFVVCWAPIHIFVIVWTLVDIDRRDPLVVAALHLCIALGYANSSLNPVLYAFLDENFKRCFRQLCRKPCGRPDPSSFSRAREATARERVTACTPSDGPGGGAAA
Mu-type opioid receptor (Homo sapiens), sequence (P35372 whole entry): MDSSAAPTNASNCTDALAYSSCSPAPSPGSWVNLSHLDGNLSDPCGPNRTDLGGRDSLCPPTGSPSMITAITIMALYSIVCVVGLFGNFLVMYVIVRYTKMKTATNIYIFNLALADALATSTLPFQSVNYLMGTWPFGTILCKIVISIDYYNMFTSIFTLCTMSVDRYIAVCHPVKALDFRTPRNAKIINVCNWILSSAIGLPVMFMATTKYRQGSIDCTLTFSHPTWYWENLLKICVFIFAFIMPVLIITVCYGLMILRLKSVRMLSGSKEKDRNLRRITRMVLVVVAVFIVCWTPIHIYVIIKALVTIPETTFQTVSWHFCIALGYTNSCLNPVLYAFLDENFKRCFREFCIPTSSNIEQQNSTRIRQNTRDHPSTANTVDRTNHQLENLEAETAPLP

Compound: Oc1cccc(N2CCN(CCCc3ccccc3)CC2)c1
- Ke [1]: 34.3 nM
- Ke [2]: 8.47 nM
- Ke [3]: 36.8 nM

Compound: C[C@H]1CN(C)CCN1c1cccc(O)c1
- Ke [1]: > 10000 nM
- Ke [2]: 508 nM
- Ke [3]: 194 nM

Compound: C[C@@H]1CN(CCCc2ccccc2)CCN1c1cccc(O)c1
- Ke [1]: 6.99 nM
- Ke [2]: 1.01 nM
- Ke [3]: 1.57 nM

Compound: C[C@H]1CN(CCCc2ccccc2)CCN1c1cccc(O)c1
- Ke [1]: 13.4 nM
- Ke [2]: 0.88 nM
- Ke [3]: 4.09 nM

Compound: C[C@@H]1CN(c2cccc(O)c2)[C@@H](C)CN1CCCc1ccccc1
- Ke [1]: 55.3 nM
- Ke [2]: 6.14 nM
- Ke [3]: 4.25 nM

Compound: C[C@H]1CN(c2cccc(O)c2)[C@@H](C)CN1CCCc1ccccc1
- Ke [1]: 23.4 nM
- Ke [2]: 17.9 nM
- Ke [3]: 19.5 nM

Compound: C[C@H]1CN(CCCc2ccccc2)CC[C@@]1(C)c1cccc(O)c1
- Ke [1]: 0.9 nM
- Ke [2]: 0.1 nM
- Ke [3]: 0.88 nM

Compound: C[C@@H]1CN(CCCc2ccccc2)[C@@H](C)CN1c1cccc(O)c1
- Ke [1]: 180 nM
- Ke [2]: 18 nM
- Ke [3]: 22.9 nM

Compound: C[C@H]1CN(C)CC[C@@]1(C)c1cccc(O)c1 (relative stereo)
- Ke [2]: 29.3 nM

Compound: C[C@H]1CN(CCCc2ccccc2)C[C@H](C)N1c1cccc(O)c1
- Ke [1]: 9000 nM
- Ke [2]: 1650 nM
- Ke [3]: 123 nM
